Two substances from patent US11674951B2, “Methods for identifying a treatment for rheumatoid arthritis” (The Brigham and Women's Hospital, Inc., priority 2017, dated 2023) can be followed below.

Assay [1] concerns PTPN22 transcripts in PBMC. As to the kind of experiment: Anti-CD3 antibody induced PTPN22 transcript level in PBMC in absence or presence of drug (RT-PCR, drug/no-drug ratio). Type of assay: cell-based, human. The conditions noted are these: anti-CD3 2.5 ug/ml, 24 hours. As for the experimental part: PBMCs (1 million cells) of these subjects that were collected before the treatment were stimulated in vitro with anti-CD3 antibodies (2.5 ug/ml) in the absence or presence of corresponding drug (etanercept 250 ug/ml, adalimumab 100 ug/ml) for 24 hours. PBMC from subject BW34 was tested separately with etancercept and adalimumab. RNA was harvested from the stimulated cells and the level of PTPN22 transcripts was quantified with RT-PCR.
The PTPN22 level from cells stimulated in the presence of drug was then divided by the level obtained from cells stimulated in the absence of drug. This drug/no-drug ratio calculated from the 9 drug responders ranged from 1.67 to 2.5, whereas the ratio calculated from the 6 drug non-responders ranged from 0.86 to 1.35 (FIG. 4 and Table 1). […]

Another assay has as its system active RA patients. Nature of the assay: Clinical response of active RA patients (CPIRA study) by Clinical Disease Activity Index (CDAI). The conditions noted are these: for ΔCDAI: 1st visit minus 2nd visit CDAI; for 2nd visit CDAI: 12 weeks after the treatment started; for number of treated subjects who did not respond (CDAI definition) / number of treated subjects who responded (CDAI definition): seven CPIRA subjects treated per drug. Details: key to 2nd visit CDAI / ΔCDAI: CDAI = SJC(28)+TJC(28)+PGA+EGA; PGA/EGA on 1-10, 10 = maximal activity. The class given is in vivo, human. From the text:
The Clinical Disease Activity Index (CDAI) is a useful clinical composite score for patients with rheumatoid arthritis. In some embodiments, it can be determined by the following formula: CDAI=SJC(28)+TJC(28)+PGA+EGA, wherein SJC(28) is Swollen 28-Joint Count (shoulders, elbows, wrists, MCPs, PIPs including thumb IP, knees), TJC(28) is Tender 28-Joint Count (shoulders, elbows, wrists, MCPs, PIPs including thumb IP, knees), PGA is Patient Global disease Activity (patient's self assessment of overall RA disease activity on a scale 1-10 where 10 is maximal activity), and EGA is Evaluator's Global disease Activity (evaluator's assessment of overall RA disease activity on a scale 1-10 where 10 is maximal activity). In some embodiments, a subject with an RA can have a CDAI that is equal to or greater than 5, 10, 15, or 20. In some embodiments, the subject has an active RA, and a subject with an active RA can have a CDAI that is equal to or greater than 10. A CDAI that is equal to or greater than 10 often indicates moderate or severe RA.
Active RA patients were recruited through the Central Pain in Rheumatoid Arthritis (CPIRA) study. The PBMC were collected from active RA patients at the time when they switched or started a new RA treatment and were also collected 12 weeks after the treatment started.
PBMC collected from 14 CPIRA subjects before they started either etanercept or adalimumab were analyzed (Table 1). Seven of the […] subjects were treated by etanercept.
The responsiveness to treatment was determined by the following definition.
CDAI decrease>=12 for those with baseline CDAI>22,
CDAI decrease>=6 for those with baseline CDAI>=10,
CDAI decrease>=1 for those with baseline CDAI<10.

[2] abbreviates: adalimumab non-responders, one value per subject: BW34, BW83.
Where [3] appears, read: adalimumab responders, one value per subject: BW32, BW57, BW85, BW89, BS137.
[4] abbreviates: etanercept non-responders, one value per subject: BW53, BW80, BW116.
Setting [5] is: etanercept responders, one value per subject: BW39, BW56, BW82, BW110.

Where “and” joins values, the source holds several entries; their conditions need not be identical. Equal values may be shown once.

On to adalimumab, for which the “PTPN22 Drug/no-drug ratio” value in assay [1] (PBMC of adalimumab non-responders collected before treatment, adalimumab 100 ug/ml, one value per subject: BW34, BW83) was 1.17 and 0.93. The “PTPN22 Drug/no-drug ratio” value in assay [1] (PBMC of adalimumab responders collected before treatment, adalimumab 100 ug/ml, one value per subject: BW32, BW57, BW85, BW89, BS137) was 1.82 and 1.77 and 1.97 and 2.37 and 1.67. In the assay on active RA patients (setting [2]), the ΔCDAI is 4.8 and 1; the “2nd visit CDAI” value was 24.2 and 13. In the assay on active RA patients (setting [3]), the ΔCDAI is 15.2 and 10 and 21 and 23 and 13; the “2nd visit CDAI” value is 0 and 9 and 25 and 34 and 18. In addition, in the assay with active RA patients, the “number of treated subjects who did not respond (CDAI definition)” value is given as “two” and the “number of treated subjects who responded (CDAI definition)” value was “five”.

For etanercept, the “PTPN22 Drug/no-drug ratio” value is 0.86 and 1.18 and 1.23 and 1.35 in assay [1] (PBMC of etanercept non-responders collected before treatment, etanercept 250 ug/ml, one value per subject: BW53, BW80, BW116, BW34*); 2.14 and 2.04 and 1.82 and 2.5 in assay [1] (PBMC of etanercept responders collected before treatment, etanercept 250 ug/ml, one value per subject: BW39, BW56, BW82, BW110). For the same substance, the ΔCDAI with active RA patients (setting [4]) was 1.5 and −0.5 and 6; in the assay with active RA patients (setting [5]), 12.5 (2×) and 9 and 23. For the same substance, the “2nd visit CDAI” value is 25.5 and 21.5 and 23 with active RA patients (setting [4]); 0 and 6.5 and 6 and 12 with active RA patients (setting [5]). In the assay with active RA patients, the “number of treated subjects who did not respond (CDAI definition)” value is listed as “three”. In addition, in the assay on active RA patients, the “number of treated subjects who responded (CDAI definition)” value is recorded as “Four”.
